# Laboratory results: PMC10388305, “Synthesis and Evaluation of a Monomethyl Auristatin E—Integrin αvβ6 Binding Peptide–Drug Conjugate for Tumor Targeted Drug Delivery” (Journal of Medicinal Chemistry, 2023)
# Square brackets hold non-standard residues; d marks the D form. Peptide text beside a SMILES is read from it. * marks the point of attachment. Dolaproine = CO[C@@H]([C@@H]1CCCN1)[C@@H](C)C(=O)O; Dil = CC[C@H](C)[C@H](NC)[C@@H](CC(=O)O)OC; X1 = C[C@@H](N*)[C@@H](O)c1ccccc1; NMeV = CN[C@H](C(=O)O)C(C)C
# Key:
# [1] = system: DX3puroβ6 (+) and DX3puro (−) tumors; assay: Therapy study, control groups (half DX3puroβ6 (+), half DX3puro (−) tumors); type: in vivo, mice
# Description: Mice treated with [^natCu]PDC-1 had slower tumor growth compared to the groups receiving saline, non-drug bearing peptide [^natCu]2, or free, non-targeted MMAE (Figure 7). […] All mice in the groups treated with saline, non-drug bearing peptide [^natCu]2, or free, non-targeted MMAE had met an end point criterion (≥2 cm in any direction and/or tumor ulceration) by 56 days, 70 days, and 64 days from start of treatment, respectively, with all these groups having the same median survival of 37 days (Figure 7B).
# Figure 7 (A) Average tumor volume over time. (B) Kaplan–Meier survival plot.
# Tumor xenografts were established by subcutaneous injection of either DX3puroβ6 or DX3puro cells (3 × 10^6 cells in 100 μL serum-free DMEM/animal) into the flank. The tumors were allowed to grow for 19 days before the start of treatment (day 0). […] Tumor volumes and body weights (to assess possible systemic toxicity) were measured starting on day 0, and once a week thereafter until the end of the study. Tumor volume (V) was determined according to the equation V = (π/6) × L × W × H, where L is the longest axis, W is the axis perpendicular to L, and H is perpendicular to the plane of L and W. End point determination criteria were: any axis >2 cm, active ulceration, or compromised health of the mouse (>20% loss of body weight from the start of the study). […] Survival curves were determined by Kaplan–Meier method.
# DX3puroβ6 (+) cells [2] = assay: WST-1 cell viability assay, DX3puroβ6; type: cell-based; settings: DX3puroβ6 (+); 48 h treatment + 24 h media; mean ± SD
# Description: (§1) Peptides NH2-2 and [^natCu]2 were not toxic to any cells (Figure 3, gray and black, respectively).
# (§2) Cell viability was measured after treatment with either NH2-2, [^natCu]2, MMAE (free, non-targeted drug), NH2-PDC-1, or [^natCu]PDC-1 in DX3puroβ6 (+) and DX3puro (−) cells at variable concentrations up to 5 nM, and in BxPC-3 (+) and MIA PaCa-2 (−) cells at variable concentrations up to 250 nM, or with MMAE at concentrations up to 10 nM. Cells were seeded in a 96 well plate at a density of 6000 cells/well for DX3puroβ6 and DX3puro, and at a density of 10,000 cells/well for BxPC-3 and MIA PaCa-2. DMEM media was used for all cells except for BxPC-3 (RPMI 1640 media). Cells (n = 6–8 wells/cell type/compound) were treated with different concentrations of NH2-2, [^natCu]2, MMAE, NH2-PDC-1, or [^natCu]PDC-1 dissolved in the respective media, as well as their respective media (no treatment) for 48 h (37 °C, 5% CO2), after which the media was removed; cells were washed twice with media (200 μL) and re-incubated in media (37 °C, 5% CO2) for 24 h. The media was then removed and the WST-1 reagent was added to each well, and the cells were incubated for 2 h at 37 °C. The 96 well plates were read at 450 nm by a Multiscan Ascent microplate reader. The percent cell viability was normalized to untreated cells (set as 100% viability) for each cell line.
# DX3puro (−) cells [3] = assay: WST-1 cell viability assay, DX3puro; type: cell-based; settings: 48 h treatment + 24 h media, up to 5 nM, mean ± SD
# Description: as §1, §2
# BxPC-3 (+) cells [4] = assay: WST-1 cell viability assay, BxPC-3; type: cell-based; settings: 48 h treatment + 24 h media, mean ± SD
# Description: as §1, §2
# [5] = cited from earlier work
# Description: Tumor xenografts were established by subcutaneous injection of either DX3puroβ6 or DX3puro cells (3 × 10^6 cells in 100 μL serum-free DMEM/animal) into the flank. The tumors were allowed to grow for 19 days before the start of treatment (day 0). Mice were treated with either (1) saline, (2) peptide ([^natCu]2), 6 mg/kg, 1.12 μmol/kg), (3) non-targeted drug (MMAE, 0.3 mg/kg, 0.42 μmol/kg), or (4) PDC ([^natCu]PDC-1, 6 mg/kg, 0.88 μmol/kg). Dosing of MMAE was 0.3 mg/kg as per maximum dose with no physiological response.[25] The [^natCu]PDC-1 treatment groups consisted of n = 10/tumor model, whil ...
# BxPC-3 (+) cells [6] = assay: Caspase-3/7 activity assay (ApoTox-Glo), BxPC-3; type: cell-based; settings: 250 nM (MMAE 10 nM, staurosporine 100 nM), 24, 48, 72 h
# Description: (§3) Caspase-3/7 activity was analyzed using an ApoTox-Glo Triplex Assay kit. Cells were seeded in a 96 well plate at the same density and using the same respective media as described for the WST-1 assay and incubated overnight (37 °C, 5% CO2). DX3puroβ6 and DX3puro cells were treated with 1 nM of MMAE (free, non-targeted drug) or 0.625 nM of the other compounds: NH2-2, [^natCu]2, NH2-PDC-1, or [^natCu]PDC-1. BxPC-3 and MIA PaCa-2 cells were treated with 10 nM of MMAE or 250 nM of the other compounds: NH2-2, [^natCu]2, NH2-PDC-1, or [^natCu]PDC-1. All cells were treated with 100 nM of staurosporine as a positive control.[24] Untreated cells (media) were used as a measure of endogenous caspase-3/7 activity (normalized to 1). Cells were treated (n = 4/cell line/compound/time) for 24, 48, or 72 h (37 °C, 5% CO2) prior to washing. After treatment, the media was removed, cells were washed, and Caspase-Glo 3/7 reagent was added, and incubated for 1 h at room temperature. Caspase-3/7 activity was analyzed by measuring luminescence with a Fluoroskan FL microplate reader according to the manufacturer’s protocol.
# MIA PaCa-2 (−) cells [7] = assay: Caspase-3/7 activity assay (ApoTox-Glo), MIA PaCa-2; type: cell-based; settings: 250 nM (MMAE 10 nM, staurosporine 100 nM), 24, 48, 72 h
# Description: as §3
# MIA PaCa-2 (−) cells [8] = assay: WST-1 cell viability assay, MIA PaCa-2; type: cell-based; settings: MIA PaCa-2 (−); 48 h treatment + 24 h media; up to 250 nM (MMAE up to 10 nM); mean ± SD
# Description: as §1, §2
# DX3puroβ6 (+) cells [9] = assay: Caspase-3/7 activity assay (ApoTox-Glo), DX3puroβ6; type: cell-based; settings: DX3puroβ6 (+); 0.625 nM (MMAE 1 nM, staurosporine 100 nM); 24, 48, 72 h
# Description: as §3
# DX3puro (−) cells [10] = assay: Caspase-3/7 activity assay (ApoTox-Glo), DX3puro; type: cell-based; settings: 0.625 nM (MMAE 1 nM, staurosporine 100 nM), 24, 48, 72 h
# Description: as §3
structure (smiles),measurement,setting,value
"CC[C@H](C)[C@@H]([C@@H](CC(=O)N1CCC[C@H]1[C@H](OC)[C@@H](C)C(=O)N[C@H](C)[C@@H](O)c1ccccc1)OC)N(C)C(=O)[C@@H](NC(=O)[C@@H](NC)C(C)C)C(C)C [MMAE, monomethyl auristatin E] (H-[NMeV]V[Dil][Dolaproine]-X1)",Median survival,"[1]; [natCu]2 6 mg/kg, MMAE 0.3 mg/kg i.v. on days 0, 3, 6, 9, n = 8/group",37 days
same,Time by which all mice had met an end point criterion,[1]; from start of treatment,≤ 64 days
same,EC50,DX3puroβ6 (+) cells [2],0.15 ± 0.02 nM
same,EC50,DX3puro (−) cells [3],0.14 ± 0.03 nM
same,EC50,BxPC-3 (+) cells [4],0.5 ± 0.03 nM
same,Maximum dose with no physiological response,[5],0.3 mg/kg
same,Caspase-3/7 activity (in words),BxPC-3 (+) cells [6],increased caspase-3/7 activity
same,Caspase-3/7 activity (in words),MIA PaCa-2 (−) cells [7],increased caspase-3/7 activity
same,EC50,MIA PaCa-2 (−) cells [8],0.16 ± 0.01 nM
same,Caspase-3/7 activity (in words),DX3puroβ6 (+) cells [9],increased caspase-3/7 activity
same,Caspase-3/7 activity (in words),DX3puro (−) cells [10],increased caspase-3/7 activity
